Reference: ChEMBL document CHEMBL4613211, “Aurone: A biologically attractive scaffold as anticancer agent” (Eur J Med Chem, 2019)

Tests used:
Type in all cases: functional
[1] = system: M14; assay: Growth inhibition of human M14 cells at 10 uM after 48 hrs by sulforhodamine B assay relative to control; details: M14, 48 h, read-out: GI
[2] = system: SF-268; assay: Growth inhibition of human SF268 cells at 10 uM after 48 hrs by sulforhodamine B assay relative to control; details: SF-268, 48 h, read-out: GI
[3] = system: KM12; assay: Growth inhibition of human KM12 cells at 10 uM after 48 hrs by sulforhodamine B assay relative to control; details: KM12, 48 h, read-out: GI
[4] = system: NCI-H226; assay: Growth inhibition of human NCI-H226 cells at 10 uM after 48 hrs by sulforhodamine B assay relative to control; details: NCI-H226, 48 h, read-out: GI
[5] = system: CAKI-1; assay: Growth inhibition of human CAKI-1 cells at 10 uM after 48 hrs by sulforhodamine B assay relative to control; details: CAKI-1, 48 h, read-out: GI
[6] = system: SNB-75; assay: Growth inhibition of human SNB75 cells at 10 uM after 48 hrs by sulforhodamine B assay relative to control; details: SNB-75, 48 h, read-out: GI
[7] = system: EKVX; assay: Growth inhibition of human EKVX cells at 10 uM after 48 hrs by sulforhodamine B assay relative to control; details: read-out: GI
[8] = system: NCI/ADR-RES; assay: Growth inhibition of human NCI-ADR-RES cells at 10 uM after 48 hrs by sulforhodamine B assay relative to control; details: read-out: GI
[9] = system: SW-620; assay: Growth inhibition of human SW620 cells at 10 uM after 48 hrs by sulforhodamine B assay relative to control; details: SW-620, 48 h, read-out: GI
[10] = system: Hs-578T; assay: Growth inhibition of human Hs 578T cells at 10 uM after 48 hrs by sulforhodamine B assay relative to control; details: read-out: GI
[11] = system: CCRF-CEM; assay: Growth inhibition of human CCRF-CEM cells at 10 uM after 48 hrs by sulforhodamine B assay relative to control; details: read-out: GI
[12] = system: PC-3; assay: Growth inhibition of human PC3 cells at 10 uM after 48 hrs by sulforhodamine B assay relative to control; details: PC-3, 48 h, read-out: GI
[13] = system: NCI-H322M; assay: Growth inhibition of human NCI-H322M cells at 10 uM after 48 hrs by sulforhodamine B assay relative to control; details: read-out: GI
[14] = system: RXF 393; assay: Growth inhibition of human RXF393 cells at 10 uM after 48 hrs by sulforhodamine B assay relative to control; details: RXF 393, 48 h, read-out: GI
[15] = system: SNB-19; assay: Growth inhibition of human SNB19 cells at 10 uM after 48 hrs by sulforhodamine B assay relative to control; details: SNB-19, 48 h, read-out: GI
[16] = system: SN12C; assay: Growth inhibition of human SN12C cells at 10 uM after 48 hrs by sulforhodamine B assay relative to control; details: read-out: GI
[17] = system: Malme-3M; assay: Growth inhibition of human MALME-3M cells at 10 uM after 48 hrs by sulforhodamine B assay relative to control; details: read-out: GI
[18] = system: SR; assay: Growth inhibition of human SR cells at 10 uM after 48 hrs by sulforhodamine B assay relative to control; details: read-out: GI
[19] = system: HCT-116; assay: Growth inhibition of human HCT116 cells at 10 uM after 48 hrs by sulforhodamine B assay relative to control; details: HCT-116, 48 h, read-out: GI
[20] = system: SK-OV-3; assay: Growth inhibition of human SKOV3 cells at 10 uM after 48 hrs by sulforhodamine B assay relative to control; details: SK-OV-3, 48 h, read-out: GI
[21] = system: K562; assay: Growth inhibition of human K562 cells at 10 uM after 48 hrs by sulforhodamine B assay relative to control; details: K562, 48 h, read-out: GI
[22] = system: A549; assay: Growth inhibition of human A549/ATCC cells at 10 uM after 48 hrs by sulforhodamine B assay relative to control; details: A549, 48 h, read-out: GI
[23] = system: OVCAR-4; assay: Growth inhibition of human OVCAR4 cells at 10 uM after 48 hrs by sulforhodamine B assay relative to control; details: OVCAR-4, 48 h, read-out: GI
[24] = system: HT-29; assay: Growth inhibition of human HT-29 cells at 10 uM after 48 hrs by sulforhodamine B assay relative to control; details: HT-29, 48 h, read-out: GI
[25] = system: OVCAR-5; assay: Growth inhibition of human OVCAR5 cells at 10 uM after 48 hrs by sulforhodamine B assay relative to control; details: OVCAR-5, 48 h, read-out: GI
[26] = system: NCI-H522; assay: Growth inhibition of human NCI-H522 cells at 10 uM after 48 hrs by sulforhodamine B assay relative to control; details: NCI-H522, 48 h, read-out: GI
[27] = system: RPMI-8226; assay: Growth inhibition of human RPMI8226 cells at 10 uM after 48 hrs by sulforhodamine B assay relative to control; details: RPMI-8226, 48 h, read-out: GI
[28] = system: MDA-MB-435; assay: Growth inhibition of human MDA-MB-435 cells at 10 uM after 48 hrs by sulforhodamine B assay relative to control; details: MDA-MB-435, 48 h, read-out: GI
[29] = system: MCF7; assay: Growth inhibition of human MCF7 cells at 10 uM after 48 hrs by sulforhodamine B assay relative to control; details: MCF7, 48 h, read-out: GI
[30] = system: DU-145; assay: Growth inhibition of human DU145 cells at 10 uM after 48 hrs by sulforhodamine B assay relative to control; details: DU-145, 48 h, read-out: GI
[31] = system: OVCAR-8; assay: Growth inhibition of human OVCAR8 cells at 10 uM after 48 hrs by sulforhodamine B assay relative to control; details: OVCAR-8, 48 h, read-out: GI
[32] = system: A498; assay: Growth inhibition of human A498 cells at 10 uM after 48 hrs by sulforhodamine B assay relative to control; details: A498, 48 h, read-out: GI
[33] = system: T47D; assay: Growth inhibition of human T47D cells at 10 uM after 48 hrs by sulforhodamine B assay relative to control; details: read-out: GI
[34] = system: SF-295; assay: Growth inhibition of human SF295 cells at 10 uM after 48 hrs by sulforhodamine B assay relative to control; details: SF-295, 48 h, read-out: GI
[35] = system: UO-31; assay: Growth inhibition of human UO31 cells at 10 uM after 48 hrs by sulforhodamine B assay relative to control; details: UO-31, 48 h, read-out: GI
[36] = system: COLO 205; assay: Growth inhibition of human COLO205 cells at 10 uM after 48 hrs by sulforhodamine B assay relative to control; details: COLO 205, 48 h, read-out: GI
[37] = system: TK-10; assay: Growth inhibition of human TK10 cells at 10 uM after 48 hrs by sulforhodamine B assay relative to control; details: TK-10, 48 h, read-out: GI
[38] = system: MDA-MB-468; assay: Growth inhibition of human MDA-MB-468 cells at 10 uM after 48 hrs by sulforhodamine B assay relative to control; details: MDA-MB-468, 48 h, read-out: GI

Measured: inhibition of growth at 10 µM

COc1ccc(/C=C2\Oc3c(c(OC)c4ccoc4c3CN3CCOCC3)C2=O)cc1
56.4 to 65.2%: [1] | [2] | [3] | [4] | [5] | [6] | [7] | [8] | [9] | [10] | [11] | [12] | [13] | [14] | [15] | [16] | [17] | [18] | [19] | [20] | [21] | [22] | [23] | [24] | [25] | [26] | [27] | [28] | [29] | [30] | [31] | [32] | [33] | [34] | [35] | [36] | [37] | [38]
